What was measured:
[1] = test system: Cyclooxygenase; experiment: Cyclooxygenase inhibition in volunteers after daily aspirin tablets; type: in vivo, human
[2] = test system: Platelet Aggregation; experiment: Platelet aggregation inhibition in volunteers, thrombin as aggregating agent; type: in vivo, human; details: daily dose, average (range)
Method: Platelet aggregation was measured against thrombin as aggregating agent. Tablets were all similarly made as described in Example 1.

[3] = test system: Platelet Aggregation; details: dose of 325 mg/day, in some people; cited from earlier work

Compound: CC(=O)Oc1ccccc1C(=O)O [Aspirin, acetylsalicylic acid]
- % Inhibition, after 5-7 days, of Cyclooxygenase ([1]; 10 mg. tablet, swallowed, average (range) of volunteers): 55.6 (11-95) %
- % Inhibition, after 5-7 days, of Cyclooxygenase ([1]; 20 mg. sublingual tablet, average (range)): 83.3 (75-94) %
- % Inhibition, after 5-7 days, of Cyclooxygenase ([1]; 80 mg. sublingual tablet (tablet of Example 1), average (range)): 99.0 (95-100) %
- % Inhibition, after 5-7 days, of Cyclooxygenase ([1]; 80 mg. tablet, swallowed, average (range)): 76.3 (13-100) %
- % Inhibition, after 5-7 days, of Cyclooxygenase ([1]; 325 mg tablet, swallowed, average (range)): 97.7 (25-100) %
- % Inhibition, after 5-7 days, of Cyclooxygenase ([1]; 325 mg. sublingual tablet, average): 100.0%
- % Inhibition, after 5-7 days, of Platelet Aggregation ([2]; 10 mg. tablet, swallowed): 27.5 (0-87) %
- % Inhibition, after 5-7 days, of Platelet Aggregation ([2]; 20 mg. sublingual tablet): 45.3 (35-60) %
- % Inhibition, after 5-7 days, of Platelet Aggregation ([2]; 80 mg. sublingual tablet (tablet of Example 1)): 95.7 (88-100) %
- % Inhibition, after 5-7 days, of Platelet Aggregation ([2]; 80 mg. tablet, swallowed): 44.2 (5-98) %
- % Inhibition, after 5-7 days, of Platelet Aggregation ([2]; 325 mg. sublingual tablet): 78.5 (62-98) %
- inhibition at 325 mg ([2]; Homo sapiens, Platelet, 325 mg tablet, swallowed, read-out: % Inhibition, after 5-7 days, of Platelet Aggregation): 70%
- inhibit platelet aggregation [3]: 90%
